Reference: US20250161299A1, “ORAL PCLX-001 IN THE TREATMENT OF HUMAN CANCER” (PACYLEX PHARMACEUTICALS INC., priority 2022, published 2025)
Read-outs that look alike come from different tables or passages of the source.

Test: Phase I trial of oral PCLX-001: plasma pharmacokinetics, noncompartmental analysis (Phoenix WinNonlin 8.3)
Type: in vivo, human
Settings: human, plasma
Text: The clinical trial is entitled “Phase I Trial of PCLX-001 in B-cell Non-Hodgkin Lymphoma and Advanced Solid Malignancies” and registered at clinicaltrials.gov as NCT04836195. It is a phase I dose-escalation study of oral PCLX-001, conducted in a multicenter, non-randomized, open-label, non-controlled design. The study is comprised of two parts: Part A (single-agent dose escalation) and Part B (single-agent expansion cohorts).
Patients are to receive daily oral PCLX-001 on 28-day cycles, beginning with a starting dose of 20 mg.
[…] After dosing, the blood samples (volumes 3 mL) were serially collected into heparinized tubes from a right forearm butterfly cannula. All blood fluid specimens were frozen and later assayed using a validated UHPLC-MS detection method.
Noncompartmental pharmacokinetic analysis was performed using Phoenix WinNonlin 8.3 using trapezoidal rule and linear up log down methodology. WinNonlin was allowed to pick optimal terminal phases.
Nonparametric superposition was performed using Phoenix WinNonlin Nonparametric Superposition to predict steady state data based upon Day 1 data for each patient. It utilized the 8- and 24-hour time points for estimation of terminal phase for the purposes of this exercise. We simulated 20 mg daily oral dosing and simulations were conducted out to steady state. Results are show in FIGS. 5, 6, and 7.
In the non-compartmental analysis, Phoenix WinNonlin 8.3 trapezoidal rule was used, with linear up log down method. This allowed WinNonlin to pick optimal terminal phase (WinNonlin will accept Rsq adjusted to >0.7). Additional analysis to assess adequate fie included visual inspection of data, and AUCextrap should be <15%.
Phoenix WinNonlin 8.3 trapezoidal rule. Used linear up log down method. Allowed WinNonlin to pick optimal terminal phase (WinNonlin will accept Rsq adjusted >0.7).
Other analysis to assess adequate fit. Visual inspection of data. AUCextrap should be <15%.

[1] = oral, 140 mg, Table 4, not on Pantoprazole, 140 mg, N 1, Day 1
[2] = oral, 140 mg, Table 5, Mean (CV), on Pantoprazole, 140 mg, N 2, Day 1
[3] = oral, 140 mg, Table 5, Mean (CV), on Pantoprazole, 140 mg, N 2, Day 15
[4] = po, 20 mg, Table 1A, Patient 115-002-001 (Patient 1), Day 1, 20 mg oral daily
[5] = po, 20 mg, Table 1A, Patient 115-002-001 (Patient 1), Day 15, 20 mg oral daily
[6] = po, 20 mg, Table 1A, Patient 115-002-002 (Patient 2), Day 15, 20 mg oral daily
[7] = po, 20 mg, Table 1A, Patient 115-002-004 (Patient 3), Day 1, 20 mg oral daily
[8] = po, 20 mg, Table 1A, Patient 115-002-004 (Patient 3), Day 15, 20 mg oral daily

Cc1c(NS(=O)(=O)c2c(Cl)cc(-c3ccnc(N4CCNCC4)c3)cc2Cl)c(CC(C)C)nn1C [PCLX-001, 2,6-dichloro-N-(3-isobutyl-1,5-dimethyl-1H-pyrazol-4-yl)-4-(2-(piperazin-1-yl)pyridin-4-yl)benzene sulfonamide]
Cmax (oral, 70 mg, Table 4, not on Pantoprazole, 70 mg, N 1, Day 15): 629 ng/mL | AUC(0-t) (oral, 70 mg, Table 4, not on Pantoprazole, 70 mg, N 1, Day 15, read-out: AUClast): 7300 ng·h/mL | Tmax (oral, 70 mg, Table 4, not on Pantoprazole, 70 mg, N 1, Day 15, read-out: Tmax): 4 h | Cmax (oral, 70 mg, Table 5, Mean (CV), on Pantoprazole, 70 mg, N 2, Day 1): 283 ng/mL | AUC(0-t) (oral, 70 mg, Table 5, Mean (CV), on Pantoprazole, 70 mg, N 2, Day 1, read-out: AUClast): 3260 ng·h/mL | Cmax (oral, 70 mg, Table 5, Mean (CV), on Pantoprazole, 70 mg, N 2, Day 15): 386 ng/mL | AUC(0-t) (oral, 70 mg, Table 5, Mean (CV), on Pantoprazole, 70 mg, N 2, Day 15, read-out: AUClast): 5760 ng·h/mL | Tmax (oral, 70 mg, Table 5, median (min, max), on Pantoprazole, 70 mg, N 2, Day 1, read-out: Tmax): 6 h | Tmax (oral, 70 mg, Table 5, median (min, max), on Pantoprazole, 70 mg, N 2, Day 15, read-out: Tmax): 6 h | Cmax (oral, 100 mg, Table 4, Mean (CV), not on Pantoprazole, 100 mg, N 2, Day 15): 1340 ng/mL | Cmax (oral, 100 mg, Table 4, Mean (CV), not on Pantoprazole, 100 mg, N 4, Day 1): 1770 ng/mL | AUC(0-t) (oral, 100 mg, Table 4, Mean, not on Pantoprazole, 100 mg, N 2, Day 15, read-out: AUClast): 17400 ng·h/mL | AUC(0-inf) (oral, 100 mg, Table 4, Mean, not on Pantoprazole, 100 mg, N 4, Day 1): 18000 ng·h/mL | AUC(0-t) (oral, 100 mg, Table 4, Mean, not on Pantoprazole, 100 mg, N 4, Day 1, read-out: AUClast): 15100 ng·h/mL | half-life (oral, 100 mg, Table 4, Mean, not on Pantoprazole, 100 mg, N 4, Day 1, read-out: t½ (converted)): 7.26 h | Tmax (oral, 100 mg, Table 4, median (min, max), not on Pantoprazole, 100 mg, N 2, Day 15, read-out: Tmax): 3 h | Tmax (oral, 100 mg, Table 4, median (min, max), not on Pantoprazole, 100 mg, N 4, Day 1, read-out: Tmax): 2 h | AUC(0-inf) (oral, 100 mg, Table 4, not on Pantoprazole, 100 mg, N 2, Day 15, value from N = 1 patient): 19400 ng·h/mL | half-life (oral, 100 mg, Table 4, not on Pantoprazole, 100 mg, N 2, Day 15, value from N = 1 patient, read-out: t½ (converted)): 7.56 h | Cmax (oral, 140 mg, Table 4, Mean (CV), not on Pantoprazole, 140 mg, N 1, Day 15): 903 ng/mL | AUC(0-inf) (oral, 140 mg, Table 4, Mean, not on Pantoprazole, 140 mg, N 1, Day 15): 10700 ng·h/mL | AUC(0-t) (oral, 140 mg, Table 4, Mean, not on Pantoprazole, 140 mg, N 1, Day 15, read-out: AUClast): 7680 ng·h/mL | Tmax (oral, 140 mg, Table 4, median (min, max), not on Pantoprazole, 140 mg, N 1, Day 15, read-out: Tmax): 1.5 h | AUC(0-inf) [1]: 24200 ng·h/mL | Cmax [1]: 2710 ng/mL | AUC(0-t) (oral, 140 mg, Table 4, not on Pantoprazole, 140 mg, N 1, Day 1, read-out: AUClast): 21200 ng·h/mL | Tmax (oral, 140 mg, Table 4, not on Pantoprazole, 140 mg, N 1, Day 1, read-out: Tmax): 0.5 h | half-life (oral, 140 mg, Table 4, not on Pantoprazole, 140 mg, N 1, Day 1, read-out: t½ (converted)): 7.91 h | half-life (oral, 140 mg, Table 4, not on Pantoprazole, 140 mg, N 1, Day 15, read-out: t½ (converted)): 13.8 h | AUC(0-inf) [2]: 7830 ng·h/mL | Cmax [2]: 1300 ng/mL | AUC(0-t) (oral, 140 mg, Table 5, Mean (CV), on Pantoprazole, 140 mg, N 2, Day 1, read-out: AUClast): 7260 ng·h/mL | AUC(0-inf) [3]: 10700 ng·h/mL | Cmax [3]: 903 ng/mL | AUC(0-t) (oral, 140 mg, Table 5, Mean (CV), on Pantoprazole, 140 mg, N 2, Day 15, read-out: AUClast): 7680 ng·h/mL | half-life (oral, 140 mg, Table 5, Mean, on Pantoprazole, 140 mg, N 2, Day 1, read-out: t½ (converted)): 6.71 h | half-life (oral, 140 mg, Table 5, Mean, on Pantoprazole, 140 mg, N 2, Day 15, read-out: t½ (converted)): 13.8 h | Tmax (oral, 140 mg, Table 5, median (min, max), on Pantoprazole, 140 mg, N 2, Day 1, read-out: Tmax): 1 h | Tmax (oral, 140 mg, Table 5, median (min, max), on Pantoprazole, 140 mg, N 2, Day 15, read-out: Tmax): 1.5 h | Tmax (oral, Example 2, all dose groups, Days 1 and 15, read-out: Tmax, median (range)): 2 h | half-life (oral, Example 2, range across the dose groups (20 to 140 mg), read-out: t1/2): 5.02 to 17.4 h | AUC(0-inf) [4]: 2030 ng·h/mL | Cmax [4]: 353 ng/mL | AUC(0-t) (po, 20 mg, Table 1A, Patient 115-002-001 (Patient 1), Day 1, 20 mg oral daily, read-out: AUClast or AUCtau): 1710 ng·h/mL | half-life (po, 20 mg, Table 1A, Patient 115-002-001 (Patient 1), Day 1, 20 mg oral daily, read-out: Half-life (converted)): 8.54 h | Tmax (po, 20 mg, Table 1A, Patient 115-002-001 (Patient 1), Day 1, 20 mg oral daily, read-out: Tmax): 1 h | AUC(0-inf) [5]: 3500 ng·h/mL | Cmax [5]: 479 ng/mL | AUC(0-t) (po, 20 mg, Table 1A, Patient 115-002-001 (Patient 1), Day 15, 20 mg oral daily, read-out: AUClast or AUCtau): 2730 ng·h/mL | half-life (po, 20 mg, Table 1A, Patient 115-002-001 (Patient 1), Day 15, 20 mg oral daily, read-out: Half-life (converted)): 10.3 h | Tmax (po, 20 mg, Table 1A, Patient 115-002-001 (Patient 1), Day 15, 20 mg oral daily, read-out: Tmax): 1 h | Cmax (po, 20 mg, Table 1A, Patient 115-002-002 (Patient 2), Day 1, 20 mg oral daily): 127 ng/mL | AUC(0-t) (po, 20 mg, Table 1A, Patient 115-002-002 (Patient 2), Day 1, 20 mg oral daily, read-out: AUClast or AUCtau): 1300 ng·h/mL | Tmax (po, 20 mg, Table 1A, Patient 115-002-002 (Patient 2), Day 1, 20 mg oral daily, read-out: Tmax): 4 h | AUC(0-inf) [6]: 2520 ng·h/mL | Cmax [6]: 215 ng/mL | AUC(0-t) (po, 20 mg, Table 1A, Patient 115-002-002 (Patient 2), Day 15, 20 mg oral daily, read-out: AUClast or AUCtau): 2010 ng·h/mL | half-life (po, 20 mg, Table 1A, Patient 115-002-002 (Patient 2), Day 15, 20 mg oral daily, read-out: Half-life (converted)): ~10 h | Tmax (po, 20 mg, Table 1A, Patient 115-002-002 (Patient 2), Day 15, 20 mg oral daily, read-out: Tmax): 2 h | AUC(0-inf) [7]: 1880 ng·h/mL | Cmax [7]: 304 ng/mL | AUC(0-t) (po, 20 mg, Table 1A, Patient 115-002-004 (Patient 3), Day 1, 20 mg oral daily, read-out: AUClast or AUCtau): 1780 ng·h/mL | half-life (po, 20 mg, Table 1A, Patient 115-002-004 (Patient 3), Day 1, 20 mg oral daily, read-out: Half-life (converted)): 5.61 h | Tmax (po, 20 mg, Table 1A, Patient 115-002-004 (Patient 3), Day 1, 20 mg oral daily, read-out: Tmax): 2 h | AUC(0-inf) [8]: 2150 ng·h/mL | Cmax [8]: 295 ng/mL | AUC(0-t) (po, 20 mg, Table 1A, Patient 115-002-004 (Patient 3), Day 15, 20 mg oral daily, read-out: AUClast or AUCtau): 1910 ng·h/mL
